Laboratory results as given in patent US9790221B2, “Heteroaryl compounds as IRAK inhibitors and uses thereof” (Merck Patent GmbH, priority 2014, dated 2017).

Tests used:
[1] = biological target: IRAK1 (His-TEV-IRAK1 (194-712)) (Homo sapiens (Human), UniProt P51617); assay: IRAK1 enzymatic assay; type: biochemical
In short: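 Recombinant His-TEV-IRAK1 (194-712), 15 ng/well, autophosphorylation with 1 μM ATP plus [33P]ATP, 3 h at 30° C in Hepes pH 7.0 buffer with MgCl2, DTT, EGTA, BSA and Triton; compounds from 20 µM to 1 nM. The reaction was stopped with EDTA, and radioactivity was counted in streptavidin FlashPlates.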

[2] = system: TLR7 induced IL-6 secretion in human mononuclear cells (PBMC's); assay: TLR7 induced IL-6 in human PBMC's; type: cell-based; conditions: Homo sapiens, PBMC, read-out: TLR7 induced IL-6 secretion in hPBMC's (IC50)
Experimental: TLR7 Induced IL-6 in Human PBMC's
Human PBMC assay was used as one of the functional assay a to monitor the activity of IRAK1 and IRAK4 small molecule inhibitors on TLR7 induced IL-6 secretion in human mononuclear cells (PBMC's). Human PBMCs were prepared from buffy coats (whole blood enriched with leukocytes and platelets) obtained from healthy volunteers used either fresh or frozen are plated in assay media (RPMI+2% P/S/L-glu+10% HI-FBS) and pre-treated with compounds in DMSO/media (range of concentrations from 25 uM to 0.4 nM) or controls (0.25% DMSO) for 30 minutes at 37° C. in assay media. Following pre-treatment with IRAK1 and IRAK4 inhibitors, PBMC's were stimulated with TLR7 specific ligand (2 uM) overnight (16-18 hrs) at 37° C. After incubation supernatant was transferred to 384 well PE AlphaPlate-384 (6005350) and IL-6 is quantified using Perkin Elmer IL-6 Alpha LISA kit (AL223C). Plates were read on an Envision® plate reader with Alpha Technology®.

IRAK4 = IRAK4 (Homo sapiens (Human), UniProt Q9NWZ3); assay: IRAK4 enzymatic assay; type: biochemical
In short: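 Recombinant His-TEV-IRAK4 (20 ng/well) phosphorylating biotinylated STK1 peptide (300 nM) with 2 μM ATP plus [^33P]ATP, 3 h at 30° C in pH 7.0 Hepes buffer with Mg2+ and Mn2+. Compounds 20 µM to 1 nM; EDTA stop, radioactivity captured on streptavidin FlashPlates.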

Chain of IRAK4 (Q9NWZ3 whole entry): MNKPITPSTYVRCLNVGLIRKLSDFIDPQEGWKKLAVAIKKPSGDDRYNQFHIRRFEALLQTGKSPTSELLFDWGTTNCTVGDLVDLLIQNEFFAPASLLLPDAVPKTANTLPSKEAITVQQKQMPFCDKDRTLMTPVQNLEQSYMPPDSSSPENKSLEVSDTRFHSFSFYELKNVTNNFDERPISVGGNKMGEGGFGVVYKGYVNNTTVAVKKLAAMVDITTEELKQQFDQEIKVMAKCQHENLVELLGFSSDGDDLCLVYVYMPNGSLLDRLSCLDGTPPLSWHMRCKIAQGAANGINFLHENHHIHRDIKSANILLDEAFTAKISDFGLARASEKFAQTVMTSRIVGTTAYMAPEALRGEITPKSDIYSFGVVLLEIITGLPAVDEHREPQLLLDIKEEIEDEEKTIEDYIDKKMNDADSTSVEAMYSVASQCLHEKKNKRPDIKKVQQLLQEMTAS
Chain of IRAK1 (His-TEV-IRAK1 (194-712)) (P51617 194-712): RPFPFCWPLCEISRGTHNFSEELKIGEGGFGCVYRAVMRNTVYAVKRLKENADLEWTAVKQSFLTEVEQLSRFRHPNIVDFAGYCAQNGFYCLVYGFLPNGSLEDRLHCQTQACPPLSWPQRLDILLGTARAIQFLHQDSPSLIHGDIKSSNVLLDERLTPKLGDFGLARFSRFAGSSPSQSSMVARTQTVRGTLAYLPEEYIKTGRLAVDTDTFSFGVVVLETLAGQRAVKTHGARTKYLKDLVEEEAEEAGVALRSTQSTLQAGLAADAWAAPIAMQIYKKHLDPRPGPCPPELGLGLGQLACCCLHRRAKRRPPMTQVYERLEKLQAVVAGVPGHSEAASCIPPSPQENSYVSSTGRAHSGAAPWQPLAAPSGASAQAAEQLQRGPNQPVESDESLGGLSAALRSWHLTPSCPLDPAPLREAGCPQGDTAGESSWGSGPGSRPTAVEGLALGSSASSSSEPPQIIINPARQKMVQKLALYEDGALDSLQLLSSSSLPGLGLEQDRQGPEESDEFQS

Row | Compound | IC50 [1] [µM] | IC50 (IRAK4) [µM] | IC50 [2] [µM]
1 | CC(=O)NC12CC(Nc3nc(-c4cccc(-c5cnn(C)c5)c4)ncc3-c3cnn(C)c3)(C1)C2 [Example 266] | < 0.1 | < 0.1 | 0.1 to 1
2 | Cc1nnc(-c2cnc(-c3cccc(-c4cnn(C)c4)c3)nc2N[C@H]2CC[C@H](NS(C)(=O)=O)CC2)s1 [Example 254] | < 0.1 | < 0.1 | < 0.1
3 | Cn1cc(-c2cccc(-c3ncc(-c4ccn(C)n4)c(N[C@@H]4CC[C@H](N)C4)n3)c2)cn1 (racemic) [Example 107] | 0.1 to 1 | 0.1 to 1 | 0.1 to 1
4 | CC(=O)NC1(CNc2nc(-c3cccc(-c4cnn(C)c4)c3)ncc2-c2cnn(C)c2)CCCCC1 [Example 256] | 1 to 5 | < 0.1 | 1 to 5
5 | CN(CC1(F)COC1)c1nc(-c2cccc(-c3cnn(C)c3)c2)ncc1-c1cnn(C)c1 [Example 45] | 1 to 5 | 0.1 to 1 | 1 to 5
6 | Cn1cc(-c2cccc(-c3ncc(-c4cnn(C)c4)c(NCC4CCNCC4)n3)c2)cn1 [Example 7, {5-(1-Methyl-1H-pyrazol-4-yl)-2-[3-(1-methyl-1H-pyrazol-4-yl)-phenyl]-pyrimidin-4-yl}-piperidin-4-ylmethyl-amine] | 0.1 to 1 | 0.1 to 1 | 1 to 5
7 | Cn1cc(-c2cccc(-c3ncc(-c4cnn(C)c4)c(NC45CCC(N)(C4)C5)n3)c2)cn1 [Example 66] | < 0.1 | < 0.1 | 0.1 to 1
8 | Cn1cc(-c2cccc(-c3ncc(-c4cnn(C)c4)c(NCC4CCOCC4)n3)c2)cn1 [Example 13, {5-(1-Methyl-1H-pyrazol-4-yl)-2-[3-(1-methyl-1H-pyrazol-4-yl)-phenyl]-pyrimidin-4-yl}-(tetrahydro-pyran-4-ylmethyl)-amine] | 0.1 to 1 | 0.1 to 1 | 1 to 5
9 | Cc1nnc(-c2cnc(-c3cccc(-c4cnn(C)c4)c3)nc2NC(C)C)s1 [Example 15, Isopropyl-[2-[3-(1-methyl-1H-pyrazol-4-yl)-phenyl]-5-(5-methyl-[1,3,4]thiadiazol-2-yl)-pyrimidin-4-yl]-amine] | 0.1 to 1 | < 0.1 | 0.1 to 1
10 | Cn1cc(-c2cccc(-c3ncc(-c4ccn(C)n4)c(NCCN4CCS(=O)(=O)CC4)n3)c2)cn1 [Example 84] | 1 to 5 | 0.1 to 1 | > 5
11 | Cn1cc(-c2cccc(-c3ncc(-c4ccn(C)n4)c(NC4CC(CN)(CCl)C4)n3)c2)cn1 (stereo not drawn) [Example 99] | 0.1 to 1 | < 0.1 | 0.1 to 1
12 | Cn1cc(-c2cccc(-c3ncc(-c4cnn(C)c4)c(NCC4(CO)CCC4)n3)c2)cn1 [Example 53] | 0.1 to 1 | < 0.1 | 1 to 5
13 | Cn1cc(-c2cccc(-c3ncc(-c4ccn(C)n4)c(NC4CCOCC4)n3)c2)cn1 [Example 138] | 1 to 5 | < 0.1 | 1 to 5
14 | Cn1cc(-c2cccc(-c3ncc(-c4cnn(C)c4)c(NCCN4CCOC4=O)n3)c2)cn1 [Example 38] | 1 to 5 | 0.1 to 1 | > 5
15 | Cn1cc(-c2cccc(-c3ncc(-c4ccn(C)n4)c(NC4(CO)COC4)n3)c2)cn1 [Example 93] | 0.1 to 1 | < 0.1 | 0.1 to 1
16 | Cn1cc(-c2cccc(-c3ncc(-c4cnn(C)c4)c(NC4CC5CCC4N5S(C)(=O)=O)n3)c2)cn1 (stereo not drawn) [Example 199] | 0.1 to 1 | < 0.1 | 0.1 to 1
17 | Cc1nnc(-c2cnc(-c3cccc(-c4cnn(C)c4)c3)nc2NCC(O)C(F)(F)F)s1 (stereo not drawn) [Example 216] | 0.1 to 1 | < 0.1 | 0.1 to 1
18 | Cn1cc(-c2cccc(-c3ncc(-c4cnn(C)c4)c(NC[C@@H](O)CO)n3)c2)cn1 [Example 56] | > 5 | < 0.1 | 1 to 5

Further lines, with some results ahead:

Row | IC50 [1] [µM] | IC50 (IRAK4) [µM] | Compound | IC50 [2] [µM]
19 | 0.1 to 1 | < 0.1 | Cn1cc(-c2cccc(-c3ncc(-c4cnn(C)c4)c(N[C@H]4CC[C@@H](O)CC4)n3)c2)cn1 [Example 221] | 0.1 to 1
20 | 0.1 to 1 | < 0.1 | Cn1cc(-c2cccc(-c3ncc(-c4cnn(C)c4)c(N[C@H]4CC[C@@H](N)CC4)n3)c2)cn1 [Example 44] | 0.1 to 1
21 | 0.1 to 1 | < 0.1 | Cn1cc(-c2cccc(-c3ncc(-c4cnn(C)c4)c(N[C@H]4C[C@@H](NS(C)(=O)=O)C4)n3)c2)cn1 [Example 183] | 1 to 5
22 | < 0.1 | < 0.1 | Cn1cc(-c2cccc(-c3ncc(-c4cnn(C)c4)c(NC4CC(CN)C4)n3)c2)cn1 (stereo not drawn) [Example 188] | 1 to 5
23 | < 0.1 | < 0.1 | Cn1cc(-c2cccc(-c3ncc(-c4cnn(C)c4)c(N[C@H]4C[C@@H](CNS(C)(=O)=O)C4)n3)c2)cn1 [Example 195, N-(3-{5-(1-Methyl-1H-pyrazol-4-yl)-2-[3-(1-methyl-1H-pyrazol-4-yl)-phenyl]-pyrimidin-4-ylamino}-cyclobutylmethyl)-methanesulfonamide] | 1 to 5
24 | 0.1 to 1 | < 0.1 | Cn1cc(-c2cccc(-c3ncc(-c4cnn(C)c4)c(NCC4CC(O)C4)n3)c2)cn1 (stereo not drawn) [Example 181] | 1 to 5
25 | 0.1 to 1 | 0.1 to 1 | Cn1cc(-c2cccc(-c3ncc(-c4cnn(C)c4)c(NC4CC(F)C4)n3)c2)cn1 (stereo not drawn) [Example 50] | 1 to 5
26 | 0.1 to 1 | < 0.1 | Cn1cc(-c2cccc(-c3ncc(-c4cnn(C)c4)c(NC4CCC(CN)CC4)n3)c2)cn1 (stereo not drawn) [Example 194] | 0.1 to 1
27 | < 0.1 | < 0.1 | Cn1cc(-c2cccc(-c3ncc(-c4cnn(C)c4)c(NCCS(N)(=O)=O)n3)c2)cn1 [Example 278] | 0.1 to 1
28 | 0.1 to 1 | < 0.1 | Cn1cc(-c2cccc(-c3ncc(-c4cnn(C)c4)c(NC4CCCCC4O)n3)c2)cn1 (stereo not drawn) [Example 244] | 0.1 to 1
29 | 0.1 to 1 | < 0.1 | Cn1cc(-c2cccc(-c3ncc(-c4cnn(C)c4)c(NC4CCCC4)n3)c2)cn1 [Example 32] | 1 to 5
30 | 0.1 to 1 | 0.1 to 1 | Cn1cc(-c2cccc(-c3ncc(-c4cnn(C)c4)c(N[C@H]4C[C@H](CNS(C)(=O)=O)C4)n3)c2)cn1 [Example 196, N-(3-{5-(1-Methyl-1H-pyrazol-4-yl)-2-[3-(1-methyl-1H-pyrazol-4-yl)-phenyl]-pyrimidin-4-ylamino}-cyclobutylmethyl)-methanesulfonamide] | 1 to 5
31 | 0.1 to 1 | < 0.1 | Cn1cc(-c2cccc(-c3ncc(-c4cnn(C)c4)c(N[C@H]4CC[C@H](O)[C@@H]4O)n3)c2)cn1 [Example 273] | 0.1 to 1
32 | 0.1 to 1 | < 0.1 | Cn1cc(-c2cccc(-c3ncc(-c4cnn(C)c4)c(N[C@H]4CC[C@H](N)CC4)n3)c2)cn1 [Example 143] | 0.1 to 1
33 | 0.1 to 1 | < 0.1 | Cn1cc(-c2cccc(-c3ncc(-c4cnn(C)c4)c(N[C@@H]4CCC[C@@H](O)[C@H]4O)n3)c2)cn1 (racemic) [Example 133, (1R,2S,3R)-3-{5-(1-Methyl-1H-pyrazol-4-yl)-2-[3-(1-methyl-1H-pyrazol-4-yl)-phenyl]-pyrimidin-4-ylamino}-cyclohexane-1,2-diol] | 0.1 to 1
34 | 1 to 5 | < 0.1 | Cn1cc(-c2cccc(-c3ncc(-c4cnn(C)c4)c(NC4CCC(O)C4)n3)c2)cn1 (racemic) [Example 167] | 1 to 5
35 | 1 to 5 | 0.1 to 1 | Cn1cc(-c2cccc(-c3ncc(-c4cnn(C)c4)c(NCCCS(C)(=N)=O)n3)c2)cn1 (stereo not drawn) [Example 282] | > 5
36 | 0.1 to 1 | < 0.1 | Cn1cc(-c2cccc(-c3ncc(-c4cnn(C)c4)c(N[C@H]4CCCC[C@@H](O)[C@H]4O)n3)c2)cn1 (stereo in doubt) [Example 248] | 0.1 to 1
37 | 0.1 to 1 | < 0.1 | Cn1cc(-c2cccc(-c3ncc(-c4cnn(C)c4)c(N[C@H]4CCC[C@H](O)C4)n3)c2)cn1 (racemic) [Example 162] | 0.1 to 1
38 | > 5 | < 0.1 | Cn1cc(-c2cccc(-c3ncc(-c4cnn(C)c4)c(N[C@@H]4CCCC[C@H](O)[C@@H]4O)n3)c2)cn1 [Example 289, (1S,2R,3R)-3-{5-(1-Methyl-1H-pyrazol-4-yl)-2-[3-(1-methyl-1H-pyrazol-4-yl)-phenyl]-pyrimidin-4-ylamino}-cycloheptane-1,2-diol] | 0.1 to 1
39 | 0.1 to 1 | < 0.1 | Cn1cc(-c2cccc(-c3ncc(-c4cnn(C)c4)c(N[C@@H]4CCC[C@@H](F)[C@@H]4O)n3)c2)cn1 (single isomer, unassigned) [Example 286] | 0.1 to 1
